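Dose response: 5 concentrations. Exposure: 48 h. Format: 96-well plates. Endpoint: linear interpolation; highest concentration if not reached. TGI is the concentration that stops growth completely.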

In the first test the test system is 786-0 renal. Nature of the test: inhibition of tumour cell growth, NCI panel, 48 h.
Turning to `Cc1ccc(C(=O)c2nnc(C(=O)c3ccc(C)cc3)nn2)cc1`, the TGI was above 100 µM.

The compound `O=C1[C@H]2ON(c3ccccc3)C(c3ccccc3Cl)[C@H]2C(=O)N1c1ccc(Cc2ccc(N3C(=O)[C@@H]4ON(c5ccccc5)C(c5ccccc5Cl)[C@@H]4C3=O)cc2)cc1` (some centres not stated) had a TGI above 100 µM.

Consider `COc1cc(Cn2c3ccccc3c3cc(C)c4c(c32)C=CC(C)(CCC=C(C)C)O4)cc2c1[nH]c1ccccc12` (configuration not stated), for which the TGI was above 100 µM.

A further test deals with A498 renal. Nature of the test: inhibition of tumour cell growth, NCI panel, 48 h.
Turning to `O=C1[C@H]2ON(c3ccccc3)C(c3ccccc3Cl)[C@H]2C(=O)N1c1ccc(Cc2ccc(N3C(=O)[C@@H]4ON(c5ccccc5)C(c5ccccc5Cl)[C@@H]4C3=O)cc2)cc1` (some centres not stated), the TGI was above 100 µM.

In turn, `COc1cc(Cn2c3ccccc3c3cc(C)c4c(c32)C=CC(C)(CCC=C(C)C)O4)cc2c1[nH]c1ccccc12` (configuration not stated) yielded a TGI above 100 µM.

The next test has as its system A549 NSCLC. Put plainly: inhibition of tumour cell growth, NCI panel, 48 h.
Consider `Cc1ccc(C(=O)c2nnc(C(=O)c3ccc(C)cc3)nn2)cc1`, for which the TGI is above 100 µM.

In turn, `COc1cc(C2C(C(=O)O)=C(CO)Oc3cc4c(cc32)OCO4)cc(OC)c1O` (configuration not stated) gave a TGI above 100 µM.

The compound `O=C1[C@H]2ON(c3ccccc3)C(c3ccccc3Cl)[C@H]2C(=O)N1c1ccc(Cc2ccc(N3C(=O)[C@@H]4ON(c5ccccc5)C(c5ccccc5Cl)[C@@H]4C3=O)cc2)cc1` (some centres not stated) displayed a TGI above 100 µM.

`COc1cc(Cn2c3ccccc3c3cc(C)c4c(c32)C=CC(C)(CCC=C(C)C)O4)cc2c1[nH]c1ccccc12` (configuration not stated) returned a TGI above 100 µM.

A further test has as its system ACHN renal. Put plainly: inhibition of tumour cell growth, NCI panel, 48 h.
With `Cc1ccc(C(=O)c2nnc(C(=O)c3ccc(C)cc3)nn2)cc1`, the TGI was above 100 µM.

In turn, `COc1cc(C2C(C(=O)O)=C(CO)Oc3cc4c(cc32)OCO4)cc(OC)c1O` (configuration not stated) showed a TGI above 100 µM.

The compound `O=C1[C@H]2ON(c3ccccc3)C(c3ccccc3Cl)[C@H]2C(=O)N1c1ccc(Cc2ccc(N3C(=O)[C@@H]4ON(c5ccccc5)C(c5ccccc5Cl)[C@@H]4C3=O)cc2)cc1` (some centres not stated) registered a TGI above 100 µM.

For the compound `COc1cc(Cn2c3ccccc3c3cc(C)c4c(c32)C=CC(C)(CCC=C(C)C)O4)cc2c1[nH]c1ccccc12` (configuration not stated), the TGI is above 100 µM.

The subject of another test is CAKI-1 renal. Put plainly: inhibition of tumour cell growth, NCI panel, 48 h.
Compound `Cc1ccc(C(=O)c2nnc(C(=O)c3ccc(C)cc3)nn2)cc1` came in with a TGI above 100 µM.

Take `COc1cc(C2C(C(=O)O)=C(CO)Oc3cc4c(cc32)OCO4)cc(OC)c1O` (configuration not stated): the TGI is above 100 µM.

Consider `O=C1[C@H]2ON(c3ccccc3)C(c3ccccc3Cl)[C@H]2C(=O)N1c1ccc(Cc2ccc(N3C(=O)[C@@H]4ON(c5ccccc5)C(c5ccccc5Cl)[C@@H]4C3=O)cc2)cc1` (some centres not stated), for which the TGI was above 100 µM.

`COc1cc(Cn2c3ccccc3c3cc(C)c4c(c32)C=CC(C)(CCC=C(C)C)O4)cc2c1[nH]c1ccccc12` (configuration not stated) showed a TGI above 100 µM.

For another test, the system named is CCRF-CEM leukemia. Nature of the test: inhibition of tumour cell growth, NCI panel, 48 h.
Compound `Cc1ccc(C(=O)c2nnc(C(=O)c3ccc(C)cc3)nn2)cc1` had a TGI of 50.8 µM.

Compound `COc1cc(C2C(C(=O)O)=C(CO)Oc3cc4c(cc32)OCO4)cc(OC)c1O` (configuration not stated) registered a TGI above 100 µM.

For `O=C1[C@H]2ON(c3ccccc3)C(c3ccccc3Cl)[C@H]2C(=O)N1c1ccc(Cc2ccc(N3C(=O)[C@@H]4ON(c5ccccc5)C(c5ccccc5Cl)[C@@H]4C3=O)cc2)cc1` (some centres not stated), the TGI was above 100 µM.

With `COc1cc(Cn2c3ccccc3c3cc(C)c4c(c32)C=CC(C)(CCC=C(C)C)O4)cc2c1[nH]c1ccccc12` (configuration not stated), the TGI was above 100 µM.

A further test deals with COLO 205 colon. Nature of the test: inhibition of tumour cell growth, NCI panel, 48 h.
Compound `Cc1ccc(C(=O)c2nnc(C(=O)c3ccc(C)cc3)nn2)cc1` yielded a TGI above 100 µM.

Turning to `COc1cc(C2C(C(=O)O)=C(CO)Oc3cc4c(cc32)OCO4)cc(OC)c1O` (configuration not stated), the TGI is above 100 µM.

As for `O=C1[C@H]2ON(c3ccccc3)C(c3ccccc3Cl)[C@H]2C(=O)N1c1ccc(Cc2ccc(N3C(=O)[C@@H]4ON(c5ccccc5)C(c5ccccc5Cl)[C@@H]4C3=O)cc2)cc1` (some centres not stated), the TGI was above 100 µM.

`COc1cc(Cn2c3ccccc3c3cc(C)c4c(c32)C=CC(C)(CCC=C(C)C)O4)cc2c1[nH]c1ccccc12` (configuration not stated) yielded a TGI above 100 µM.

A further test concerns DLD-1 colon. Nature of the test: inhibition of tumour cell growth, NCI panel, 48 h.
For the compound `Cc1ccc(C(=O)c2nnc(C(=O)c3ccc(C)cc3)nn2)cc1`, the TGI was above 100 µM.

For the compound `COc1cc(C2C(C(=O)O)=C(CO)Oc3cc4c(cc32)OCO4)cc(OC)c1O` (configuration not stated), the TGI was above 100 µM.

Take `O=C1[C@H]2ON(c3ccccc3)C(c3ccccc3Cl)[C@H]2C(=O)N1c1ccc(Cc2ccc(N3C(=O)[C@@H]4ON(c5ccccc5)C(c5ccccc5Cl)[C@@H]4C3=O)cc2)cc1` (some centres not stated): the TGI was above 100 µM.

On to `COc1cc(Cn2c3ccccc3c3cc(C)c4c(c32)C=CC(C)(CCC=C(C)C)O4)cc2c1[nH]c1ccccc12` (configuration not stated), for which the TGI was above 100 µM.

For another test, the system named is DMS 114 small cell lung. Put plainly: inhibition of tumour cell growth, NCI panel, 48 h.
As to `COc1cc(C2C(C(=O)O)=C(CO)Oc3cc4c(cc32)OCO4)cc(OC)c1O` (configuration not stated), the TGI was above 100 µM.

`O=C1[C@H]2ON(c3ccccc3)C(c3ccccc3Cl)[C@H]2C(=O)N1c1ccc(Cc2ccc(N3C(=O)[C@@H]4ON(c5ccccc5)C(c5ccccc5Cl)[C@@H]4C3=O)cc2)cc1` (some centres not stated) gave a TGI above 100 µM.

The compound `COc1cc(Cn2c3ccccc3c3cc(C)c4c(c32)C=CC(C)(CCC=C(C)C)O4)cc2c1[nH]c1ccccc12` (configuration not stated) returned a TGI above 100 µM.

A further test has as its system DMS 273 small cell lung. Put plainly: inhibition of tumour cell growth, NCI panel, 48 h.
The compound `Cc1ccc(C(=O)c2nnc(C(=O)c3ccc(C)cc3)nn2)cc1` gave a TGI above 100 µM.

Turning to `COc1cc(C2C(C(=O)O)=C(CO)Oc3cc4c(cc32)OCO4)cc(OC)c1O` (configuration not stated), the TGI is above 100 µM.

The compound `O=C1[C@H]2ON(c3ccccc3)C(c3ccccc3Cl)[C@H]2C(=O)N1c1ccc(Cc2ccc(N3C(=O)[C@@H]4ON(c5ccccc5)C(c5ccccc5Cl)[C@@H]4C3=O)cc2)cc1` (some centres not stated) registered a TGI above 100 µM.

Regarding `COc1cc(Cn2c3ccccc3c3cc(C)c4c(c32)C=CC(C)(CCC=C(C)C)O4)cc2c1[nH]c1ccccc12` (configuration not stated), the TGI was above 100 µM.

The next test deals with EKVX NSCLC. Nature of the test: inhibition of tumour cell growth, NCI panel, 48 h.
On to `Cc1ccc(C(=O)c2nnc(C(=O)c3ccc(C)cc3)nn2)cc1`, for which the TGI was above 100 µM.

Compound `COc1cc(C2C(C(=O)O)=C(CO)Oc3cc4c(cc32)OCO4)cc(OC)c1O` (configuration not stated) returned a TGI above 100 µM.

Regarding `O=C1[C@H]2ON(c3ccccc3)C(c3ccccc3Cl)[C@H]2C(=O)N1c1ccc(Cc2ccc(N3C(=O)[C@@H]4ON(c5ccccc5)C(c5ccccc5Cl)[C@@H]4C3=O)cc2)cc1` (some centres not stated), the TGI was above 100 µM.

Regarding `COc1cc(Cn2c3ccccc3c3cc(C)c4c(c32)C=CC(C)(CCC=C(C)C)O4)cc2c1[nH]c1ccccc12` (configuration not stated), the TGI is above 100 µM.

For another test, the system named is HCC-2998 colon. Nature of the test: inhibition of tumour cell growth, NCI panel, 48 h.
The compound `Cc1ccc(C(=O)c2nnc(C(=O)c3ccc(C)cc3)nn2)cc1` had a TGI above 100 µM.

`O=C1[C@H]2ON(c3ccccc3)C(c3ccccc3Cl)[C@H]2C(=O)N1c1ccc(Cc2ccc(N3C(=O)[C@@H]4ON(c5ccccc5)C(c5ccccc5Cl)[C@@H]4C3=O)cc2)cc1` (some centres not stated) displayed a TGI above 100 µM.

Take `COc1cc(Cn2c3ccccc3c3cc(C)c4c(c32)C=CC(C)(CCC=C(C)C)O4)cc2c1[nH]c1ccccc12` (configuration not stated): the TGI was above 100 µM.

The subject of a further test is HCT-116 colon. Nature of the test: inhibition of tumour cell growth, NCI panel, 48 h.
In turn, `Cc1ccc(C(=O)c2nnc(C(=O)c3ccc(C)cc3)nn2)cc1` returned a TGI above 100 µM.

As to `COc1cc(C2C(C(=O)O)=C(CO)Oc3cc4c(cc32)OCO4)cc(OC)c1O` (configuration not stated), the TGI is above 100 µM.

`O=C1[C@H]2ON(c3ccccc3)C(c3ccccc3Cl)[C@H]2C(=O)N1c1ccc(Cc2ccc(N3C(=O)[C@@H]4ON(c5ccccc5)C(c5ccccc5Cl)[C@@H]4C3=O)cc2)cc1` (some centres not stated) gave a TGI above 100 µM.

With `COc1cc(Cn2c3ccccc3c3cc(C)c4c(c32)C=CC(C)(CCC=C(C)C)O4)cc2c1[nH]c1ccccc12` (configuration not stated), the TGI was above 100 µM.

Another test deals with HCT-15 colon. Put plainly: inhibition of tumour cell growth, NCI panel, 48 h.
Turning to `Cc1ccc(C(=O)c2nnc(C(=O)c3ccc(C)cc3)nn2)cc1`, the TGI was above 100 µM.

`COc1cc(C2C(C(=O)O)=C(CO)Oc3cc4c(cc32)OCO4)cc(OC)c1O` (configuration not stated) yielded a TGI above 100 µM.

`O=C1[C@H]2ON(c3ccccc3)C(c3ccccc3Cl)[C@H]2C(=O)N1c1ccc(Cc2ccc(N3C(=O)[C@@H]4ON(c5ccccc5)C(c5ccccc5Cl)[C@@H]4C3=O)cc2)cc1` (some centres not stated): the TGI was above 100 µM.

In turn, `COc1cc(Cn2c3ccccc3c3cc(C)c4c(c32)C=CC(C)(CCC=C(C)C)O4)cc2c1[nH]c1ccccc12` (configuration not stated) returned a TGI above 100 µM.

In another test the test system is HL-60(TB) leukemia. Nature of the test: inhibition of tumour cell growth, NCI panel, 48 h.
As to `Cc1ccc(C(=O)c2nnc(C(=O)c3ccc(C)cc3)nn2)cc1`, the TGI was 48.2 µM.

The values above are taken from PubChem BioAssay (NCI).
